From patent US9856279B2 (AGIOS PHARMACEUTICALS, INC, priority 2011, dated 2018)

Target: IDH1 R132H (Homo sapiens, UniProt O75874, R132H)
Assay: Assay for IDH1 R132H inhibitors (NADPH/aKG, resazurin detection)
Type: biochemical
Conditions: enzyme assay of Example 12; read-out: IDH1R132H IC50
Method in brief: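 Compound added to substrate mix (8 uM NADPH, 2 mM aKG), then enzyme mix (0.2 μg/ml IDH1 R132H); 50 min RT in 20 mM Tris pH 7.5, 150 mM NaCl, 10 mM MgCl2, 0.03% BSA. Resazurin detection mix (30 μM) 5 min RT; resorufin fluorescence Ex544/Em590.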

Sequence of IDH1 R132H (O75874 whole entry R132H): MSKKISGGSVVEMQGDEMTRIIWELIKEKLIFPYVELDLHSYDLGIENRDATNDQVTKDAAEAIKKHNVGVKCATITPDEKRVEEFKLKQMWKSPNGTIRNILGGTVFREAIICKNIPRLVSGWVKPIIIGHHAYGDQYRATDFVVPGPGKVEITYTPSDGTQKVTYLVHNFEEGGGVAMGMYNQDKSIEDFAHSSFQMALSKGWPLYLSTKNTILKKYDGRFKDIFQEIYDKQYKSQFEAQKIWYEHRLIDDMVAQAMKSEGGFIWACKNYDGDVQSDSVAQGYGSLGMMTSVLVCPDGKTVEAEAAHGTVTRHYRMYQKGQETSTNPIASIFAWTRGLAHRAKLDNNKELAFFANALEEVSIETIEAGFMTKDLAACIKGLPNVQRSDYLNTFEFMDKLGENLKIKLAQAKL

`COCCC(=O)N1CCN(c2nc(C3CC3)c(Nc3cnc4ccccc4c3)cc2C#N)C[C@H]1C` [Compound 339, (R)-6-cyclopropyl-2-(4-(3-methoxypropanoyl)-3-methylpiperazin-1-yl)-5-(quinolin-3-ylamino)nicotinonitrile] and `COCCC(=O)N1CCN(c2nc(C3CC3)c(Nc3ccc(F)cc3)cc2C#N)C[C@H]1C` [Compound 355, (R)-6-cyclopropyl-5-((4-fluorophenyl)amino)-2-(4-(3-methoxypropanoyl)-3-methylpiperazin-1-yl)nicotinonitrile] fall in the same range of IC50: 500 to 1000 nM for the first, 500 to 1000 nM for the second.

First: COCCC(=O)N1CCN(c2nc(C3CC3)c(OCc3cccc(N)c3)cc2C#N)C[C@H]1C [Compound 341]
Second: CNc1cccc(-c2cc(C#N)c(N3CCN(C(=O)CCOC)[C@H](C)C3)nc2C2CC2)c1 [Compound 414, (R)-6-cyclopropyl-2-(4-(3-methoxypropanoyl)-3-methylpiperazin-1-yl)-5-(3-(methylamino)phenyl)nicotinonitrile]
The IC50 of the first is lower: under 500 nM for the first, 500 to 1000 nM for the second.

First: COCCC(=O)N1CCN(c2nc(C3CC3)c(-c3ccccc3CO)cc2C#N)C[C@H]1C [Compound 344, (R)-6-cyclopropyl-5-(2-hydroxymethyl-phenyl)-2-[4-(3-methoxy-propionyl)-3-methyl-piperazin-1-yl]-nicotinonitrile]
Second: COCCC(=O)N1CCN(c2nc(C3CC3)c(-c3ccccc3CO)c(C)c2C#N)C[C@H]1C [Compound 372, (R)-6-cyclopropyl-5-(2-hydroxymethyl-phenyl)-2-[4-(3-methoxy-propionyl)-3-methyl-piperazin-1-yl]-4-methyl-nicotinonitrile]
The IC50 of the first is higher: 500 to 1000 nM for the first, under 500 nM for the second. The second is the more potent here.

`COCCC(=O)N1CCN(c2nc(C3CC3)c(-c3ccccc3COC)c(C)c2C#N)C[C@H]1C` [Compound 348, (R)-6-cyclopropyl-5-(2-methoxymethyl-phenyl)-2-[4-(3-methoxy-propionyl)-3-methyl-piperazin-1-yl]-4-methyl-nicotinonitrile] and `CCc1ccccc1-c1c(C2CC2)nc(N2CCN(C(=O)CCOC)[C@H](C)C2)c(C#N)c1C` [Compound 359, (R)-6-cyclopropyl-5-(2-ethyl-phenyl)-2-[4-(3-methoxy-propionyl)-3-methyl-piperazin-1-yl]-4-methyl-nicotinonitrile] cannot be ordered by IC50: under 500 nM for the first, under 500 nM for the second.

`COCCC(=O)N1CCN(c2nc(C3CC3)c(-c3ccnn3C)c(C)c2C#N)C[C@H]1C` [Compound 349, (R)-6-cyclopropyl-2-[4-(3-methoxy-propionyl)-3-methyl-piperazin-1-yl]-4-methyl-5-(2-methyl-2H-pyrazol-3-yl)-nicotinonitrile] and `COCCC(=O)N1CCN(c2nc(C3CC3)c(-c3ccnn3C)cc2C#N)C[C@H]1C` [Compound 371, (R)-6-cyclopropyl-2-[4-(3-methoxy-propionyl)-3-methyl-piperazin-1-yl]-5-(2-methyl-2H-pyrazol-3-yl)-nicotinonitrile] fall in the same range of IC50: 500 to 1000 nM for the first, 500 to 1000 nM for the second.

`COCCC(=O)N1CCN(c2nc(C3CC3)c(-c3ccc(N4CCOCC4)cc3)cc2C#N)C[C@H]1C` [Compound 354, (R)-6-cyclopropyl-2-[4-(3-methoxy-propionyl)-3-methyl-piperazin-1-yl]-5-(4-morpholin-4-yl-phenyl)-nicotinonitrile] and `COCCC(=O)N1CCN(c2nc(C3CC3)c(N3CCOCC3)cc2C#N)C[C@H]1C` [Compound 375, (R)-6-cyclopropyl-2-(4-(3-methoxypropanoyl)-3-methylpiperazin-1-yl)-5-morpholinonicotinonitrile] fall in the same range of IC50: 500 to 1000 nM for the first, 500 to 1000 nM for the second.

`COCCC(=O)N1CCN(c2nc(C3CC3)c(-c3c(C)cccc3C)cc2C#N)C[C@H]1C` [Compound 357, (R)-6-cyclopropyl-5-(2,6-dimethyl-phenyl)-2-[4-(3-methoxy-propionyl)-3-methyl-piperazin-1-yl]-nicotinonitrile] and `COCCC(=O)N1CCN(c2nc(C3CC3)c(-c3cccc(N(C)C)c3)cc2C#N)C[C@H]1C` [Compound 413, (R)-6-cyclopropyl-5-(3-(dimethylamino)phenyl)-2-(4-(3-methoxypropanoyl)-3-methylpiperazin-1-yl)nicotinonitrile] fall in the same range of IC50: 500 to 1000 nM for the first, 500 to 1000 nM for the second.

`COCCC(=O)N1CCN(c2nc(C3CC3)c(-c3cnn(Cc4ccccc4)c3)c(C)c2C#N)C[C@H]1C` [Compound 358, (R)-5-(1-benzyl-1H-pyrazol-4-yl)-6-cyclopropyl-2-[4-(3-methoxy-propionyl)-3-methyl-piperazin-1-yl]-4-methyl-nicotinonitrile] and `COCCC(=O)N1CCN(c2nc(C3CC3)c(-c3cccc(N(C)C)c3)c(C)c2C#N)C[C@H]1C` [Compound 362, (R)-6-cyclopropyl-5-(3-dimethylamino-phenyl)-2-[4-(3-methoxy-propionyl)-3-methyl-piperazin-1-yl]-4-methyl-nicotinonitrile] cannot be ordered by IC50: under 500 nM for the first, under 500 nM for the second.

`COCCC(=O)N1CCN(c2nc(C3CC3)c(N3CCN(C(C)=O)CC3)cc2C#N)C[C@H]1C` [Compound 368, (R)-5-(4-acetylpiperazin-1-yl)-6-cyclopropyl-2-(4-(3-methoxypropanoyl)-3-methylpiperazin-1-yl)nicotinonitrile] and `COCCC(=O)N1CCN(c2nc(C3CC3)c(N3CCN(C(=O)c4ccccc4)CC3)cc2C#N)C[C@H]1C` [Compound 379, (R)-5-(4-benzoylpiperazin-1-yl)-6-cyclopropyl-2-(4-(3-methoxypropanoyl)-3-methylpiperazin-1-yl)nicotinonitrile] fall in the same range of IC50: 500 to 1000 nM for the first, 500 to 1000 nM for the second.

First: COCCC(=O)N1CCN(c2nc(C3CC3)c(-c3cccnc3F)c(C)c2C#N)C[C@H]1C [Compound 369, (R)-2-cyclopropyl-2′-fluoro-6-[4-(3-methoxy-propionyl)-3-methyl-piperazin-1-yl]-4-methyl-[3,3′]bipyridinyl-5-carbonitrile]
Second: COCCC(=O)N1CCN(c2nc(C3CC3)c(-c3cccc(F)c3F)c(C)c2C#N)C[C@H]1C [Compound 405, (R)-6-cyclopropyl-5-(2,3-difluoro-phenyl)-2-[4-(3-methoxy-propionyl)-3-methyl-piperazin-1-yl]-4-methyl-nicotinonitrile]
The IC50 of the first is higher: 500 to 1000 nM for the first, under 500 nM for the second.

`COCCC(=O)N1CCN(c2nc(C3CC3)c(-c3ccc4nnnn4c3)cc2C#N)C[C@H]1C` [Compound 370, (R)-6-cyclopropyl-2-[4-(3-methoxy-propionyl)-3-methyl-piperazin-1-yl]-5-tetrazolo[1,5-a]pyridin-6-yl-nicotinonitrile] and `COCCC(=O)N1CCN(c2nc(C3CC3)c(-c3ccc4cn[nH]c4c3)cc2C#N)C[C@H]1C` [Compound 385, (R)-6-cyclopropyl-5-(1H-indazol-6-yl)-2-(4-(3-methoxypropanoyl)-3-methylpiperazin-1-yl)nicotinonitrile] fall in the same range of IC50: 500 to 1000 nM for the first, 500 to 1000 nM for the second.

`COCCC(=O)N1CCN(c2nc(C3CC3)c(N3CCN(CC4CC4)CC3)cc2C#N)C[C@H]1C` [Compound 378, (R)-6-cyclopropyl-5-(4-(cyclopropylmethyl)piperazin-1-yl)-2-(4-(3-methoxypropanoyl)-3-methylpiperazin-1-yl)nicotinonitrile] and `COCCC(=O)N1CCN(c2nc(C3CC3)c(-c3ccc(N4CCNCC4)nc3)cc2C#N)C[C@H]1C` [Compound 396, (R)-2-cyclopropyl-6-[4-(3-methoxy-propionyl)-3-methyl-piperazin-1-yl]-6′-piperazin-1-yl-[3,3′]bipyridinyl-5-carbonitrile] cannot be ordered by IC50: under 500 nM for the first, under 500 nM for the second.

First: COCCC(=O)N1CCN(c2nc(C3CC3)c(-c3ccc(F)cc3)cc2-c2nnco2)C[C@H]1C [Compound 392, (R)-1-(4-(6-cyclopropyl-5-(4-fluorophenyl)-3-(1,3,4-oxadiazol-2-yl)pyridin-2-yl)-2-methylpiperazin-1-yl)-3-methoxypropan-1-one]
Second: COCCC(=O)N1CCN(c2nc(C3CC3)c(-c3cc4ccccc4[nH]3)cc2C#N)C[C@H]1C [Compound 394, (R)-6-cyclopropyl-5-(1H-indol-2-yl)-2-[4-(3-methoxy-propionyl)-3-methyl-piperazin-1-yl]-nicotinonitrile]
The IC50 of the first is lower: under 500 nM for the first, 500 to 1000 nM for the second. The first is the more potent here.

`COCCC(=O)N1CCN(c2nc(C3CC3)c(-c3csc(NC(=O)OC(C)(C)C)n3)cc2C#N)C[C@H]1C` [Compound 395, (R)-(4-{5-cyano-2-cyclopropyl-6-[4-(3-methoxy-propionyl)-3-methyl-piperazin-1-yl]-pyridin-3-yl}-thiazol-2-yl)-carbamic acid tert-butyl ester] and `COCCC(=O)N1CCN(c2nc(C3CC3)c(-c3cccc(NS(=O)(=O)CCl)c3)cc2C#N)C[C@H]1C` [Compound 404, (R)-1-chloro-N-(3-(5-cyano-2-cyclopropyl-6-(4-(3-methoxypropanoyl)-3-methylpiperazin-1-yl)pyridin-3-yl)phenyl)methanesulfonamide] fall in the same range of IC50: 500 to 1000 nM for the first, 500 to 1000 nM for the second.

Compared with `N#Cc1cc(-c2cccc3cnccc23)c(C2CC2)nc1N1CCN(C(=O)C2CC2)C(C(F)(F)F)C1` (centres unmarked) [Compound 397, 2-(4-(cyclopropanecarbonyl)-3-(trifluoromethyl)piperazin-1-yl)-6-cyclopropyl-5-(isoquinolin-5-yl)nicotinonitrile], `N#Cc1cc(-c2cccc3cnccc23)c(C2CC2)nc1N1CCN(C(=O)C2CC2)C(C(F)F)C1` (centres unmarked) [Compound 422, 2-(4-(cyclopropanecarbonyl)-3-(difluoromethyl)piperazin-1-yl)-6-cyclopropyl-5-(isoquinolin-5-yl)nicotinonitrile] is higher in IC50: under 500 nM for the first, 500 to 1000 nM for the second.

First: N#Cc1cc(-c2cccc3cnccc23)c(C2CC2)nc1N1CCN(C(=O)CC(F)(F)F)C(C(F)(F)F)C1 (centres unmarked) [Compound 399, 6-cyclopropyl-5-(isoquinolin-5-yl)-2-(3-(trifluoromethyl)-4-(3,3,3-trifluoropropanoyl)piperazin-1-yl)nicotinonitrile]
Second: C[C@@H]1CN(c2nc(C3CC3)c(-c3cccc4cnccc34)cc2C#N)CCN1C(=O)CCO [Compound 402, (R)-6-cyclopropyl-2-(4-(3-hydroxypropanoyl)-3-methylpiperazin-1-yl)-5-(isoquinolin-5-yl)nicotinonitrile]
The IC50 of the first is higher: 500 to 1000 nM for the first, under 500 nM for the second. The second is the more potent here.
